Test results reported in ChEMBL document CHEMBL1201862, “PubChem BioAssay data set” (2004).
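Cells were grown in 96-well plates and exposed to each compound for 48 hours at five concentrations; endpoints were interpolated linearly between bracketing concentrations, or set to the highest concentration if not reached. Abbreviation: GI50, concentration required for 50% inhibition of growth.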 The source made the active and inactive calls. Cut-off read from the data, not from the text of the source: active = GI50 up to about 1.1 µM and inactive = higher.

Columns and labels:
Test in all cases: NCI-60 cell line screen, 48 h
[1] = test system: IGROV-1
[2] = test system: TK-10
[3] = test system: Hs-578T
[4] = test system: MDA-MB-435
[5] = test system: SNB-19
[6] = test system: OVCAR-5
[7] = test system: OVCAR-3
[8] = test system: A549
[9] = test system: SK-OV-3
[10] = test system: SF-539
[11] = test system: CAKI-1
[12] = test system: KM12
[13] = test system: PC-3
[14] = test system: OVCAR-4
[15] = test system: SK-MEL-28
[16] = test system: RPMI-8226
[17] = test system: SW-620
[18] = test system: HOP-92
[19] = test system: SR
[20] = test system: CCRF-CEM

Compound	GI50 [1]	GI50 [2]	GI50 [3]	GI50 [4]	GI50 [5]	GI50 [6]	GI50 [7]	GI50 [8]	GI50 [9]	GI50 [10]	GI50 [11]	GI50 [12]	GI50 [13]	GI50 [14]	GI50 [15]	GI50 [16]	GI50 [17]	GI50 [18]	GI50 [19]	GI50 [20]
Cc1ccc(S(=O)(=O)Nc2ccccc2C(=O)c2ccc(C)c(C)c2)cc1	34.6 µM (inactive)	> 100 µM (inactive)	60.5 µM (inactive)	41.9 µM (inactive)	> 100 µM (inactive)	> 100 µM (inactive)	83.9 µM (inactive)	> 100 µM (inactive)	> 100 µM (inactive)	> 100 µM (inactive)	> 100 µM (inactive)	63.4 µM (inactive)	> 100 µM (inactive)	> 100 µM (inactive)	> 100 µM (inactive)	42.9 µM (inactive)	> 100 µM (inactive)	–	–	–
Cn1ncc2c(NCCc3ccccc3)nc(Cl)nc21	33.1 µM (inactive)	20.9 µM (inactive)	8.93 µM (inactive)	20.6 µM (inactive)	44.9 µM (inactive)	14 µM (inactive)	33.3 µM (inactive)	20.4 µM (inactive)	19.5 µM (inactive)	–	28.1 µM (inactive)	26.2 µM (inactive)	17.9 µM (inactive)	18.8 µM (inactive)	28.7 µM (inactive)	13.7 µM (inactive)	23.3 µM (inactive)	15.3 µM (inactive)	–	–
CSc1nc2c(c(=O)[nH]1)N=C(c1ccc([N+](=O)[O-])cc1)CC(c1ccccc1)N2 (stereo not given)	32.7 µM (inactive)	–	–	28.2 µM (inactive)	> 100 µM (inactive)	> 100 µM (inactive)	55.6 µM (inactive)	32.4 µM (inactive)	–	29.2 µM (inactive)	89.1 µM (inactive)	17.9 µM (inactive)	49.4 µM (inactive)	28.7 µM (inactive)	22.7 µM (inactive)	22 µM (inactive)	22.9 µM (inactive)	> 100 µM (inactive)	62.4 µM (inactive)	29.2 µM (inactive)
COc1ccc(N2/C(=N/c3ccccc3)SC(=N/S(=O)(=O)c3ccccc3)/C2=N\S(=O)(=O)c2ccccc2)cc1	13 µM (inactive)	20.1 µM (inactive)	18.6 µM (inactive)	–	18.7 µM (inactive)	22.6 µM (inactive)	–	18.5 µM (inactive)	–	–	–	38.8 µM (inactive)	16.7 µM (inactive)	–	14.5 µM (inactive)	20.7 µM (inactive)	34.8 µM (inactive)	16.4 µM (inactive)	16.8 µM (inactive)	20 µM (inactive)
O=C(COc1ccc(OCC(=O)N2C(=O)CC(=O)N(c3ccc(Cl)cc3)C2=S)cc1)N1C(=O)CC(=O)N(c2ccc(Cl)cc2)C1=S	10.8 µM (inactive)	37.3 µM (inactive)	–	32 µM (inactive)	26.9 µM (inactive)	12.9 µM (inactive)	–	22.6 µM (inactive)	35.4 µM (inactive)	–	–	15.7 µM (inactive)	29.3 µM (inactive)	33.6 µM (inactive)	50.4 µM (inactive)	49.5 µM (inactive)	53.1 µM (inactive)	20.7 µM (inactive)	–	–
COc1ccc(O)c2c(=O)ccccc12	> 100 µM (inactive)	6.32 µM (inactive)	–	–	> 100 µM (inactive)	> 100 µM (inactive)	> 100 µM (inactive)	> 100 µM (inactive)	> 100 µM (inactive)	> 100 µM (inactive)	–	> 100 µM (inactive)	–	> 100 µM (inactive)	> 100 µM (inactive)	> 100 µM (inactive)	> 100 µM (inactive)	> 100 µM (inactive)	> 100 µM (inactive)	> 100 µM (inactive)
C/C=C\C(CC(=O)NCCC1CN(C(=O)c2ccccc2)c2ccccc21)CC(=O)OC (stereo not given)	> 100 µM (inactive)	> 100 µM (inactive)	> 100 µM (inactive)	> 100 µM (inactive)	> 100 µM (inactive)	> 100 µM (inactive)	> 100 µM (inactive)	> 100 µM (inactive)	> 100 µM (inactive)	–	> 100 µM (inactive)	> 100 µM (inactive)	> 100 µM (inactive)	> 100 µM (inactive)	> 100 µM (inactive)	> 100 µM (inactive)	> 100 µM (inactive)	> 100 µM (inactive)	–	–
COC(=O)C1(O)c2ccccc2N=C2C1CCN2C (stereo not given)	> 100 µM (inactive)	> 100 µM (inactive)	–	–	> 100 µM (inactive)	> 100 µM (inactive)	–	> 100 µM (inactive)	> 100 µM (inactive)	> 100 µM (inactive)	> 100 µM (inactive)	> 100 µM (inactive)	–	> 100 µM (inactive)	> 100 µM (inactive)	> 100 µM (inactive)	> 100 µM (inactive)	> 100 µM (inactive)	> 100 µM (inactive)	> 100 µM (inactive)
COC(=O)c1c(C)cccc1/C=C1\Cc2ccc(C)c(C)c2C1=O	> 100 µM (inactive)	> 100 µM (inactive)	> 100 µM (inactive)	–	52.5 µM (inactive)	> 100 µM (inactive)	> 100 µM (inactive)	> 100 µM (inactive)	–	> 100 µM (inactive)	> 100 µM (inactive)	> 100 µM (inactive)	> 100 µM (inactive)	22.3 µM (inactive)	> 100 µM (inactive)	56.2 µM (inactive)	> 100 µM (inactive)	74.3 µM (inactive)	8.39 µM (inactive)	> 10 µM (inactive)
Cn1nc(Cc2ccc(Cl)cc2)n(N)c1=O	> 100 µM (inactive)	> 100 µM (inactive)	–	> 100 µM (inactive)	> 100 µM (inactive)	> 100 µM (inactive)	–	> 100 µM (inactive)	–	> 100 µM (inactive)	> 100 µM (inactive)	> 100 µM (inactive)	> 100 µM (inactive)	–	> 100 µM (inactive)	> 100 µM (inactive)	> 100 µM (inactive)	–	–	–
CC(=O)Nc1ccc(C(=O)NN2C(=O)CSC2c2ccc([N+](=O)[O-])cc2)cc1 (stereo not given)	> 100 µM (inactive)	> 100 µM (inactive)	> 100 µM (inactive)	> 100 µM (inactive)	> 100 µM (inactive)	> 100 µM (inactive)	> 100 µM (inactive)	> 100 µM (inactive)	> 100 µM (inactive)	> 100 µM (inactive)	–	> 100 µM (inactive)	–	> 100 µM (inactive)	> 100 µM (inactive)	> 100 µM (inactive)	> 100 µM (inactive)	> 100 µM (inactive)	–	> 100 µM (inactive)
O=c1c2cc(-c3ccccc3)cnc2sn1-c1ccc([N+](=O)[O-])cc1	29.6 µM (inactive)	–	–	42.3 µM (inactive)	25.4 µM (inactive)	> 100 µM (inactive)	16.9 µM (inactive)	31.8 µM (inactive)	26.9 µM (inactive)	42.7 µM (inactive)	39.6 µM (inactive)	38.9 µM (inactive)	33.7 µM (inactive)	39 µM (inactive)	58.1 µM (inactive)	23.4 µM (inactive)	94.8 µM (inactive)	20.6 µM (inactive)	> 100 µM (inactive)	19 µM (inactive)
NC(=S)NNc1c([N+](=O)[O-])cnn(-c2ccccc2)c1=O	19.1 µM (inactive)	24 µM (inactive)	–	–	19 µM (inactive)	18.4 µM (inactive)	17.6 µM (inactive)	23 µM (inactive)	21.6 µM (inactive)	18.8 µM (inactive)	19.6 µM (inactive)	14.7 µM (inactive)	–	17.4 µM (inactive)	17 µM (inactive)	20.7 µM (inactive)	13.1 µM (inactive)	19.9 µM (inactive)	4.05 µM (inactive)	–
COc1ccc(CCN2CCc3c(C)c(C#N)c4nc5ccccc5n4c32)cc1OC	37.2 µM (inactive)	64.1 µM (inactive)	12.9 µM (inactive)	14.3 µM (inactive)	> 100 µM (inactive)	> 100 µM (inactive)	27.2 µM (inactive)	45.9 µM (inactive)	81.3 µM (inactive)	49.9 µM (inactive)	> 100 µM (inactive)	–	25.9 µM (inactive)	26 µM (inactive)	39.5 µM (inactive)	–	26.6 µM (inactive)	22.8 µM (inactive)	–	35.4 µM (inactive)
CC(=O)Oc1ccc2c3c1[C@@H]1O[C@@H]1c1cccc(c1-3)[C@@H]1O[C@H]21	–	2.08 µM (inactive)	2.87 µM (inactive)	1.14 µM (inactive)	3.01 µM (inactive)	1.86 µM (inactive)	2 µM (inactive)	2.32 µM (inactive)	3.44 µM (inactive)	–	1.59 µM (inactive)	2.05 µM (inactive)	2.33 µM (inactive)	2.03 µM (inactive)	1.96 µM (inactive)	1.37 µM (inactive)	1.14 µM (inactive)	1.81 µM (inactive)	–	0.601 µM (active)
CC1(C)COC(C2(C)C(=O)C=C(c3ccccc3)c3ccccc32)=N1 (stereo not given)	47.5 µM (inactive)	93.8 µM (inactive)	–	–	50.5 µM (inactive)	–	30.4 µM (inactive)	33.3 µM (inactive)	22.4 µM (inactive)	43.6 µM (inactive)	42.6 µM (inactive)	47.3 µM (inactive)	–	34.8 µM (inactive)	42.9 µM (inactive)	34.9 µM (inactive)	81.8 µM (inactive)	21.8 µM (inactive)	37.2 µM (inactive)	35.5 µM (inactive)
